Reference: PubChem BioAssay (NCI)
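1) Cells in 96-well plates. 2) Compound, 48 h, 5 concentrations. 3) Linear interpolation between surrounding doses. 4) Unreached endpoint = highest concentration. At the GI50, growth is halved. The concentration for full growth arrest is given as TGI.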 Where a SMILES comes first, the peptide text is derived from it. The star is where a group is joined. Boc = CC(C)(C)OC(=O)*

Key:
Assay in all cases: NCI anticancer screen, dose series, 48 h
[1] = tested on: NCI-H522 lung
[2] = tested on: SN12C renal
[3] = tested on: OVCAR-4 ovarian
[4] = tested on: LOX IMVI melanoma

| Structure (SMILES) | TGI [1] [µM] | TGI [2] [µM] | TGI [3] [µM] | TGI [4] [µM] | GI50 [2] [µM] |
| --- | --- | --- | --- | --- | --- |
| O[C@H]1[C@H](O)[C@H](O)CN2CCC[C@@H](O)[C@H]12 | > 100 | > 100 | > 100 | > 100 | – |
| Cc1ccc(/C=N/NC2=NCCN2)s1 | > 100 | > 100 | > 100 | > 100 | – |
| O=c1c(-c2ccccc2Cl)coc2cc(F)ccc12 | 36.5 | > 100 | > 100 | 35.3 | – |
| O=c1[nH]c2ccc(CC(=S)N3CCN(c4ccccc4)CC3)cc2o1 | > 100 | > 100 | > 100 | > 100 | – |
| COc1ccc(Nc2nc(N)c(C(=O)c3ccccc3)s2)cc1 | > 100 | 66.3 | > 60.8 | > 100 | – |
| CN[C@@H](C)[C@H](OP(=O)(O)OC1[C@@H](O)[C@H](O)C(O)[C@H](O)[C@@H]1O)c1ccccc1 (stereo partly specified) | > 100 | > 100 | > 100 | – | – |
| O=C(N/N=C\c1ccc([N+](=O)[O-])cc1)c1ccccc1Nc1ccccc1C(=O)N/N=C/c1ccc([N+](=O)[O-])cc1 | – | > 100 | > 100 | – | – |
| CC(C)(C)OC(=O)Nc1cc(-c2ccccc2)co1 | 69.1 | > 100 | > 100 | > 100 | – |
| N#CC(N=Nc1ccccc1)c1nc2ccccc2o1 (stereo unspecified) | > 100 | > 100 | 37.9 | – | – |
| C=Cc1cc2c(cc1O)CC[C@@H]1[C@@H]2CC[C@]2(C)[C@@H](O)CC[C@@H]12 | 20.6 | 19.5 | 26.9 | 25.1 | 5.12 |
| Fc1cc(-c2ncc(Cl)cc2Cl)c2cccccc1-2 | > 100 | – | – | > 100 | – |
| CC1(C)C(=O)C2(OS(=O)(=O)C(F)(F)F)CCC1C2 (stereo unspecified) | – | > 100 | > 100 | > 100 | – |
| CC12CC3(O)OC(O1)C1(COC(=O)c4ccccc4)C3CC21OC1OC(CO)C(O)C(O)C1O (stereo unspecified) | > 100 | > 100 | > 100 | > 100 | – |
| COC(=O)c1ccc(CCc2cc(O)c(Br)cc2O)cc1 | 12.3 | 28.3 | 23.2 | 27.2 | – |
| O=C(/C=C/c1cccs1)c1cccc(C(=O)/C=C/c2cccs2)n1 | > 100 | > 58.8 | > 100 | 7.34 | – |
| CCOCC(NC(=O)C(CC(C)C)NC(=O)OC(C)(C)C)C(N)=O (stereo not drawn) (Boc-Leu-Ser(Et)-NH2; configuration not given here) | > 100 | > 100 | > 100 | > 100 | – |
| CC(=O)O[C@H]1CC[C@@]2(C)C(=CC[C@@H]3[C@@H]2CC[C@]2(C)c4c(cc(C#N)c(=N)n4C(C)=O)C[C@@H]32)C1 | 35.9 | 44.8 | 39.4 | 30.8 | – |
| COc1ccc(C(C#N)NCCCCCCNC(C#N)c2ccc(OC)cc2)cc1 (stereo unspecified) | > 100 | > 100 | > 100 | > 100 | – |
| NC12CC3CC4C1CC1CC2C(C3)C4(N)C1 | > 100 | > 100 | > 100 | > 100 | – |

| Structure (SMILES) | TGI [1] [µM] | TGI [2] [µM] | TGI [3] [µM] | TGI [4] [µM] | GI50 [2] [µM] |
| --- | --- | --- | --- | --- | --- |
| c1ccc(/N=C2\c3ccccc3CN2c2ccccn2)nc1 | > 100 | > 100 | > 100 | > 100 | – |
| O=C(CN1CCOCC1)CC(O)(C(F)(F)F)C(F)(F)F | > 100 | – | > 100 | > 100 | – |
| Clc1ccc2c(NCCNc3ccnc4cc(Cl)ccc34)ccnc2c1 | 35.2 | 33.4 | 35.5 | 34.1 | – |
| COc1cc2c3c(n(Cc4ccccc4)c(=O)c2cc1OC)-c1ccccc1C3=O | > 100 | > 100 | > 100 | > 100 | – |
| Cn1c2ccccc2n2c(=O)c3cccnc3c(C#N)c12 | > 100 | > 100 | > 100 | > 100 | – |
| Cc1ccc(Nc2nc(=O)[nH]c(=O)[nH]2)cc1N=[N+]=[N-] | > 100 | > 100 | > 100 | > 100 | – |
| Nc1nc(N)c2nnn(C[C@H]3CC[C@@H](CO)C3)c2n1 | > 100 | 93.3 | – | > 100 | – |
| CC(=O)O[C@H]1C(=O)[C@@]2(C)[C@H]([C@H](OC(=O)c3ccccc3)[C@]3(O)C[C@H](OC(=O)[C@H](O)[C@@H](NC(=O)CC(C)C)c4ccccc4)C(C)=C1C3(C)C)[C@]1(OC(C)=O)CO[C@@H]1C[C@@H]2O | 0.0135 | > 10 | > 10 | > 10 | – |
| C/C(=N\O)c1cccc(Nc2nc3ccccc3c3occc23)c1 | – | 33.6 | 30.2 | 33.2 | – |
| Cc1ccc(/C=N/Nc2nncc3ccccc23)s1 | > 100 | > 100 | > 93.1 | > 100 | – |
| CC(=O)NNC(=S)/N=C/c1c(O)cc(C)oc1=O | – | > 100 | > 100 | > 100 | – |
| CN(C)CCNC1=CC(=O)c2c(O)ccc(O)c2C1=O | 9.85 | 21.5 | 15.7 | 12.7 | – |
| S=C(c1c[nH]c2ccccc12)N1CCN(c2ccccc2)CC1 | – | 59.9 | – | > 100 | – |
| CC(C)NC(=O)OCc1c(COC(=O)NC(C)C)c(-c2ccc[n+](COC(=O)C3CC3)c2)n2c1CCC2 | 63.1 | > 100 | > 100 | > 100 | – |
| COc1ccc(CCc2ccc(O)c(C(=O)O)c2)cc1OC | > 100 | > 100 | > 100 | > 100 | – |
| O=C1CC(c2ccc[nH]2)=NN1c1ccccc1 | > 100 | > 100 | > 100 | > 100 | – |
| Nn1c(SCC(=O)NCc2ccccc2)nc2ccccc2c1=O | > 100 | > 100 | > 100 | > 100 | – |
| CCOP(=O)(OCC)/C(C#N)=C/c1cccn1N(C)C | > 100 | > 100 | > 100 | > 100 | – |
